Columns and labels:
cells = conditions: reported, trehalose in cells and in mice; cited from earlier work
[1] = system: human umbilical vein endothelial cells (HUVEC); assay: Autophagy induction in HUVEC, Cyto-ID fluorescence microplate detection; format: cell-based; conditions: 24 h
Method: First, we compiled a library of naturally occurring compounds known to enhance autophagy. Then, we calculated physiologically relevant concentrations of these compounds based on existing data (e.g., previously reported post-prandial plasma concentrations), and we tested each for its ability to induce autophagy at its calculated concentration alone and/or in combination with other candidate compounds. […] In all experiments, autophagy was assessed in human umbilical vein endothelial cells (HUVEC), because of their relevance to vascular physiological measures (in vivo measures, below). Pooled HUVEC cultures obtained from Cascade Biologics were grown in endothelial cell-specific medium (Lonza) at 37° C. in a […] incubator. Third passage cells were seeded into 96-well plates and allowed to reach 70% confluency, at which point candidate treatment compounds or combinations were applied for 24 hours. […] Autophagy was assessed using Enzo Life Sciences Cyto-ID autophagy detection reagents (fluorescence microplate detection of autophagic structures) according to manufacturers instructions on an M5 Spectramax fluorescent plate reader (Molecular Devices). Candidate AEON formulations were designated as AEON-1, -2, etc.
To identify a mixture of food-safe compounds that synergistically activates autophagy (the cellular process of recycling damaged internal components), we screened a library of natural compounds reported to induce autophagy in vitro (in cells). […] Autophagy was assessed via fluorescent microplate assay and confirmed by microscopy in cultured human umbilical vein endothelial cells treated for 24 hours.

[2] = low (physiologically relevant) doses, ingredient alone (trehalose 5 mM)

Cn1c(=O)c2c(ncn2C)n(C)c1=O [caffeine]
Concentration at which the single agent induces autophagy (cells): 1 to 20 mM

C=C1CC[C@H](O)C/C1=C/C=C1\CCC[C@]2(C)[C@@H]([C@H](C)CCCC(C)C)CC[C@@H]12 [cholecalciferol]
Autophagy induction (relative microplate fluorescence) [1, 2]: had no effect on autophagy

O=C(O[C@@H]1Cc2c(O)cc(O)cc2O[C@@H]1c1cc(O)c(O)c(O)c1)c1cc(O)c(O)c(O)c1 [epigallocatechin gallate]
Autophagy induction (relative microplate fluorescence) [1, 2]: had no effect on autophagy

OC[C@H]1O[C@H](O[C@H]2O[C@H](CO)[C@@H](O)[C@H](O)[C@H]2O)[C@H](O)[C@@H](O)[C@@H]1O [trehalose]
Autophagy induction (relative microplate fluorescence) ([1]; established inducers at rapamycin 0.5 μM, trehalose 50 mM (high dose), FIG. 1A): significantly stimulated autophagy | Autophagy induction (relative microplate fluorescence) [1, 2]: had no effect on autophagy | Concentration at which the single agent induces autophagy (cells): 50 to 100 mM

Source: patent US12396994B2, “Compositions for improving physiological function with age” (The Regents Of The University Of Colorado, a body corporate, priority 2017, dated 2025)
